Measurements as given in patent publication US11084833B2, “Antibacterial agents against D,D- and L,D-transpeptidases” (priority 2016, dated 2021).
“Also recorded” adds a separate entry of the source. Where two headings read alike, the source gives them in different places.

System: LdtMt2 constructs with single amino acid mutations (Tyr318, His336, His352 and Cys354)
Assay type: binding, M. tuberculosis

Row | Compound | adduct formation with mutants (UPLC-MS, any of the mutant proteins) | ITC binding to mutants | adduct formation with mutants
1 | C[C@@H](O)[C@H]1C(=O)N2C(C(=O)[O-])=C(SC3Cn4cnc[n+]4C3)[C@H](C)[C@H]12 (some centres unmarked) [biapenem] | no adducts could be detected | – | –
2 | C[C@@H](O)[C@H]1C(=O)N2C(C(=O)O)=C([C@H]3CCCO3)S[C@H]12 [faropenem] | – | loss of binding | failed to produce adducts; also recorded: did produce stable adducts
3 | C[C@@H](O)[C@H]1C(=O)N2C(C(=O)O)=C(SC3CN(C4=NCCS4)C3)[C@H](C)[C@H]12 [tebipenem] | – | loss of binding | failed to produce adducts; also recorded: did produce stable adducts
